Legend:
[1] = Measurement of transferability into brain and clearance; type: in vivo, male Wistar rats; details: rats, intravenous injection; for Radioactive accumulation per unit weight, After 2 min. / Radioactive accumulation per unit weight, After 5 min. / Radioactive accumulation per unit weight, After 15 min. / Radioactive accumulation per unit weight, After 30 min. / Radioactive accumulation per unit weight, After 60 min.: brain; for Radioactive accumulation per unit weight, After 2 min.: 2 min after injection; for Radioactive accumulation per unit weight, After 5 min.: 5 min after injection; for Radioactive accumulation per unit weight, After 15 min.: 15 min after injection; for Radioactive accumulation per unit weight, After 30 min.: 30 min after injection; for Radioactive accumulation per unit weight, After 60 min.: 60 min after injection; for transferability to brain and clearance from brain (in words): 2 to 60 min
Procedure: The sample solution was injected under non-anesthesia into the tail vein of male Wistar rats (8-week old) (dosage: 0.2 mL, dosed radioactivity: 7.4 MBq equivalent). The rats were sacrificed by decapitating under non-anesthesia to sample bloods and brains 2, 5, 15, 30 and 60 minutes after the injection. Brains were subjected to measurement of mass of brains and further subjected to measurement of radioactivity (hereinafter referred to as A in this Example) with a single channel analyzer (detector type SP-20 manufactured by OHYO KOKEN KOGYO Co., Ltd.). Further, the radioactivity level of the rest of the whole body including blood was measured in the same manner as above (hereinafter referred to as B in this Example). Using these measurement results, the amount of radioactive accumulation per unit weight of brain (% ID/g) at the respective time points were calculated in accordance with the following formula (2).
Separately, a solution of [^123I]-IMPY dissolved in a physiological saline solution containing 50 mmol/L of L-cysteine hydrochloride (radioactive concentration: 37 MBq/mL) was prepared. The same procedure as above was carried out to calculate the amount of radioactive accumulation per unit weight of brain (% ID/g) at the respective time points.
Meanwhile, in this Example, three animals were used for the experiment at the respective time points.

[2] = tested on: site of amyloid deposition in brain slice of AD patients; experiment: Confirmation of compound avidity for brain slice of AD patients by autoradiography; type: binding, human; details: 5 μm brain slice of AD patients, 10 kBq/mL, 30 minutes, room temperature; amyloid deposition confirmed by immunostaining
Procedure: The following experiment was carried out in order to examine whether amyloid in brain of AD patients can be imaged by the compound of the present invention. • (1) A 5 μm-thick brain slice of AD patients was prepared from a brain tissue of AD patients available from Analytical Biological Services Inc. (United States). • (2) The brain slice was immersed in PBS for 15 minutes, 5 minutes and 5 minutes each. […] Then, it was immersed in a 1% BSA-containing PBS solution, a PBS solution and a PBS solution each for 5 minutes to wash the brain slice. The washed brain slice was sufficiently dried, and then exposed to an imaging plate for 16 hours, and then autoradiogram image analysis was carried out by use of a Bio-imaging Analyzer (type: BAS-2500; manufactured by FUJIFILM Corporation) (FIG. 3, FIG. 4, FIG. 5). • (3) Immunostaining at a site of amyloid deposition with an anti-amyloid antibody was carried out using adjacent slices. Anti-Human Amyloidβ (N) (82E1) Mouse IgG MoAb (Immuno-Biological Laboratories Co., Ltd.) was used as the anti-amyloid antibody, and Anti-Mouse IgG (H+L) Goat IgG Fab′-HRP (Immuno-Biological Laboratories Co., Ltd.) was used as a secondary antibody. […] Results

[3] = Measurement of partition coefficient based on the octanol extraction method; type: physicochemical; details: water saturated 1-octanol / 1-octanol saturated water, 20 to 25±2° C.
Procedure: Water saturated 1-octanol and 1-octanol saturated water were added to the equilibrated vessel each in an amount of 200 μL, 400 μL or 800 μL. The equilibrated vessel was subjected to stirring, and then was shaken for 5 minutes (20 to 25±2° C., 20 rpm). […] Using the obtained count, log Poctanol was calculated in accordance with the following equation (1).

[4] = biological target: amyloid aggregates in the brain of AD patients (Homo sapiens, UniProt P05067); experiment: Binding assay using brain gray matter homogenate of AD patients (Kd, Bmax); details: mixed solution of Compound 1 and Compound 3, 0.2 to 25 nmol/L; brain gray matter homogenate (frontal lobe) of AD patients; 22° C., 3 hours
Procedure: Calculation of Dissociation Constant (Hereinafter, Referred to as Kd) and Maximum Binding Amount (Hereinafter, Referred to as Bmax) Resulting from Binding Assay Using Brain Tissue of Patients of Alzheimer's Disease (Hereinafter, Referred to as AD)
The assay was conducted using a brain gray matter homogenate of AD patients, which was prepared from a brain tissue (Frontal lobe) of AD patients commercially available from Analytical Biological Services Inc. (United States).
A mixed solution of Compound 1 (about 35 kBq/100 μL) and Compound 3 (62.5 nmol/L) was diluted with a 0.1% bovin serum albumin (hereinafter referred to as BSA)-containing 5 mmol/L phosphate buffer saline solution, and prepared to have a concentration of 0.2 nmol/L to 25 nmol/L in the reaction solution. To each well of a 96-well microplate, 100 μL of a 0.1% BSA-containing 5 mmol/L phosphate buffer saline solution and 100 μL of the prepared mixed solution of Compound 1 and Compound 3 were added. […] The filter after filtration was washed with a 0.1% BSA-containing 5 mmol/L phosphate buffer saline solution (200 μL×3 times), and then radioactivity remaining in the filter was measured with an Autowell Gamma system (type: ARC-7001, manufactured by Aloka). […] The resulting count was analyzed with GraphPad Prism Ver. 5 (manufactured by GraphPad Software, Inc.), and binding parameter (Kd, Bmax) was calculated.

amyloid aggregates in the brain of AD patients, sequence (P05067 672-713): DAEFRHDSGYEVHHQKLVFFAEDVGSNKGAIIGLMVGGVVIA

Radioactive accumulation per unit weight, After 2 min. [1] [% ID/g] | Radioactive accumulation per unit weight, After 5 min. [1] [% ID/g] | Radioactive accumulation per unit weight, After 15 min. [1] [% ID/g] | Radioactive accumulation per unit weight, After 30 min. [1] [% ID/g] | Radioactive accumulation per unit weight, After 60 min. [1] [% ID/g] | binding to the site of amyloid deposition on autoradiogram [2] | logP at 5 min ([3]; 1-octanol/water, read-out: logPoctanol value) | logPoctanol value [3] | Bmax [4] [fmol/mg protein] | Compound | transferability to brain and clearance from brain (in words) [1]
1.644 | 1.192 | 0.554 | 0.225 | 0.085 | confirmed | – | – | – | CN(C)c1ccc(-c2cn3cc(I)ccc3n2)cc1 [[^123I]-IMPY, 6-iodo-2-[4′-(N,N-dimethylamino)phenyl]imidazo[1,2-a]pyridine, reference compound] | –
1.085 | 0.701 | 0.260 | 0.100 | 0.034 | confirmed | 1.98 | 1.98 | 2242 | [123I]c1ccc2nc(-c3ccc(-n4ccnn4)cc3)cn2c1 [Compound 1, [^123I]-6-iodo-2-[4-(1H-1,2,3,-triazole-1-yl)phenyl]imidazo[1,2-a]pyridine] | excellent transferability to brain and rapid clearance from brain

Compound | Radioactive accumulation per unit weight, After 2 min. [1] [% ID/g] | Radioactive accumulation per unit weight, After 5 min. [1] [% ID/g] | Radioactive accumulation per unit weight, After 15 min. [1] [% ID/g] | Radioactive accumulation per unit weight, After 30 min. [1] [% ID/g] | Radioactive accumulation per unit weight, After 60 min. [1] [% ID/g] | binding to the site of amyloid deposition on autoradiogram [2] | logP at 5 min ([3]; 1-octanol/water, read-out: logPoctanol value) | logPoctanol value [3] | Bmax [4] [fmol/mg protein] | transferability to brain and clearance from brain (in words) [1]
[^123I]-6-iodo-2-[4-(1H-pyrrole-1-yl)phenyl]imidazo[1,2-a]pyridine [Compound 2] | 1.201 | 1.065 | 0.745 | 0.349 | 0.113 | confirmed | – | – | – | excellent transferability to brain and rapid clearance from brain

Reference: patent US9149546B2, “Compound having affinity for amyloid” (NIHON MEDI-PHYSICS CO., LTD., priority 2011, dated 2015)
